We go through 6 compounds from patent US9359303B2, “Octahydrobenzoisoquinoline modulators of dopamine receptors and uses therefor” (Purdue Research Foundation, priority 2009, dated 2016).

For one data set, the target named is D1 receptor (Homo sapiens, UniProt P21728). To be noted: reported; cited from earlier work.
Another data set addresses D2 receptor (Homo sapiens, UniProt P14416). To be noted: reported; cited from earlier work.
The conditions of data set [1]: rodents and non-human primates; iv, sc, po; cited from earlier work.
Data set [2] can be described thus: pKa used to separate acids by titration. The data set is classed as physicochemical. As for the experimental part: 4-(2,3-Dimethoxyphenyl)but-3-enoic acid (5). Recrystallized paraconic acid 4 (8.6 g, 0.032 mol) was placed into a one-neck round bottom flask and the solid was heated in a 180° C. oil bath for 6 h. Carbon dioxide could be observed bubbling out of the dark brown liquid. The reaction was cooled to room temperature and dissolved in CH2Cl2. The product and any unreacted starting material were extracted into 2 N NaOH (3×100 mL). The pKa of the butenoic acid is approximately 4.2, whereas the pKa of the paraconic acid is approximately 3.6, so the two compounds were separated by titration. The basic aqueous extract was carefully acidified with 2 N HCl, with monitoring by a calibrated pH meter. Once the pH reached 4.5, the solution started becoming slightly cloudy. The solution pH was adjusted to 4.0 and the aqueous solution was extracted with CH2Cl2. After extraction the pH of the aqueous layer increased to around 5 and the titration was repeated until there was no cloudiness at pH 4.0. The starting material was recovered by acidifying to pH 3.0 and extracting with CH2Cl2. The initial organic extracts were dried over Na2SO4, and evaporated under reduced pressure to yield pure 5 that solidified under reduced pressure as a yellow solid (4.7 g, 0.021 mol, 65.2%) that was used without further purification; mp 84-86° C. […]

Another data set has as its target D2-like receptor sites (Sus scrofa, UniProt A0ACM8QMZ9). In words: Competitive binding, porcine striatal tissue, [3H]-spiperone (50 nM ketanserine present). The conditions noted are these: porcine striatal membranes; read-out: Kd for D2-like receptor sites (receptor isotherm).

Some results are limits rather than exact numbers.

Chain of D1 receptor (P21728 whole entry): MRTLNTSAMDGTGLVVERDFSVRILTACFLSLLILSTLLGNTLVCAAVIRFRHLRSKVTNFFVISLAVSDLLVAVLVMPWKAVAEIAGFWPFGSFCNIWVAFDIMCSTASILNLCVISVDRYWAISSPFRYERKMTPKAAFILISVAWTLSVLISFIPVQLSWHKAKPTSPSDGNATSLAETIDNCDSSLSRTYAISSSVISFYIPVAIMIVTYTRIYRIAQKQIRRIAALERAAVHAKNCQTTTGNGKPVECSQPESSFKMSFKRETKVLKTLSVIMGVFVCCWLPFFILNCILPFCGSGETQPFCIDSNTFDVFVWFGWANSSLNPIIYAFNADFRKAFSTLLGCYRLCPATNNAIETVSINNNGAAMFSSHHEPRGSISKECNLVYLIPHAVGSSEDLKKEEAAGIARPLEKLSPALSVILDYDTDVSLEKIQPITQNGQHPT
Chain of D2 receptor (P14416 whole entry): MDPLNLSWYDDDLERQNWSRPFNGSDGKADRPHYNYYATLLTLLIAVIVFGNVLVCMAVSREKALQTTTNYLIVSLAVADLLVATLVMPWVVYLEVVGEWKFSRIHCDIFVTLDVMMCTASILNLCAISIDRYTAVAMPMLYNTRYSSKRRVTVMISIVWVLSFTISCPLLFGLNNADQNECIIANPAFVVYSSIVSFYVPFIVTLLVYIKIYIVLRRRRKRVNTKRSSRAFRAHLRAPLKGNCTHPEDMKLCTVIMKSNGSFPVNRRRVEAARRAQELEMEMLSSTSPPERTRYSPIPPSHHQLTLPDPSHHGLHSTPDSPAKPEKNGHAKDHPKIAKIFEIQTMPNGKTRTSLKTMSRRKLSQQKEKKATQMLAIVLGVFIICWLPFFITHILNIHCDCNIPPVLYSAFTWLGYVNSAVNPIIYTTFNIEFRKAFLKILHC
Chain of D2-like receptor sites (A0ACM8QMZ9 entry or part of it): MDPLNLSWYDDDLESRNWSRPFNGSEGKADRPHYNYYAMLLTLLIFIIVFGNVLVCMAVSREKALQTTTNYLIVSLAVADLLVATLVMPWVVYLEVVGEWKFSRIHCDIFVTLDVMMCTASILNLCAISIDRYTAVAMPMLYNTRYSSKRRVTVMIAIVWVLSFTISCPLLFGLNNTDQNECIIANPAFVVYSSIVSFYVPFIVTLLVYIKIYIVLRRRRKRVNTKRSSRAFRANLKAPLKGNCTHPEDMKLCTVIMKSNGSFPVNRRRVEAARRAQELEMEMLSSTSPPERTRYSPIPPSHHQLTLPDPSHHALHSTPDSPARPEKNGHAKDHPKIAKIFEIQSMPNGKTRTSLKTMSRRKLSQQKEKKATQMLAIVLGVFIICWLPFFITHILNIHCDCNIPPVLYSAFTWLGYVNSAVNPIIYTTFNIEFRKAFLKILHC
Method for D2-like receptor sites: Competitive Binding Experiments. Porcine striatal tissue is obtained from the Purdue Butcher Block and prepared as described in the literature. Striatal tissue is homogenized using a potter-type homogenizer, suspended in homogenization buffer (20 mM Hepes, 0.32 M sucrose, pH 7.4), and spun at 1,000 g for 10 minutes at 4° C. The pellet (P1) is discarded and supernatant is centrifuged at 30,000 g for 10 minutes at 4° C. The resultant pellet (P2) is resuspended in 50 mM Tris buffer (pH 7.4) by briefly using a Kinematica homogenizer, and then centrifuged at 30,000 g for 30 minutes at 4° C. This pellet is resuspended again in 50 mM Tris buffer, dispensed into 1 mL aliquots, and centrifuged for 10 min. at 13,000 g at 4° C. A BSA protein assay is used to determine the final weight of the pellets. Supernatant is aspirated and pellets are frozen at −80° C. until use.
Receptor and competitive binding experiments are performed as described in the literature. Pellets are resuspended (1 mL/mg) in receptor binding buffer (50 mM Hepes, 4 mM MgCl2, pH 7.4) and 75 μg protein is used per well. […] All binding experiments are incubated for 30 minutes at 37° C., and are terminated and counted in a similar fashion to the cAMP binding assays.
Data Analysis. […] Ki values are calculated from IC50 using the Cheng-Prusoff equation.

Consider `Cl.Oc1cc2c(cc1O)[C@@H]1c3ccccc3CN[C@H]1CC2` (racemic) [dihydrexidine, (±)-trans-10,11-dihydroxy-5,6,6a,7,8,12b-hexahydrobenzo[a]phenanthridine hydrochloride], for which, at D1 receptor, the “affinity for the D1 receptor” value was 2.2 nM. Further, the “affinity for the D2 receptor” value at D2 receptor is on record as 183 nM. The plasma clearance result in data set [1] is recorded as “cleared rapidly from plasma”. In the case of `Br.Oc1ccc2c(c1O)CC[C@H]1CCNC[C@H]21` (relative stereo) [Compound 2, Trans-1,2,3,4,4a,5,6,10b-octahydrobenzo[h]isoquinoline-7,8-diol HBr], the melting point (usually the temperature of the solid-liquid transition) was greater than 250 °C.

On to `Br.Oc1ccc2c(c1O)CC(c1ccccc1)C1CCNCC21` (centres unmarked) [Compound 3, 5-Phenyl-1,2,3,4,4a,5,6,10b-octahydrobenzo[h]isoquinoline-7,8-diol HBr], for which the melting point is greater than 250 °C. Turning to `COc1cccc(C2OC(=O)CC2C(=O)O)c1OC` (centres unmarked) [Compound 4, 2-(2,3-Dimethoxyphenyl)-5-oxo-tetrahydrofuran-3-carboxylic acid], the pKa (as a rule, the negative logarithm of the acid dissociation constant) in data set [2] was roughly 3.6. The same measure, in the same setting: as for `COc1cccc(C=CCC(=O)O)c1OC` [Compound 5, 4-(2,3-Dimethoxyphenyl)but-3-enoic acid], the figure is roughly 4.2. Take `O=C(CCCN1CCC2(CC1)C(=O)NCN2c1ccccc1)c1ccc(F)cc1` [[3H]-spiperone]: the Kd (as a rule, the concentration at which binding is half-saturated) on D2-like receptor sites turned out to be 0.075 nM.
